Test: solvent given as SMILES

**Q.** For Cc1cc(=O)oc2c3c4c(cc12)CCCN4CCC3, which absorption maximum (in C1CCCCC1) is on record?
**A.** 361 nm

**Q.** What about the absorption maximum (in CC#N) of the same compound?
**A.** 380 nm

**Q.** What about the absorption maximum (in CCO) of the same compound?
**A.** 387 nm

**Q.** And the absorption maximum (in O)?
**A.** 396 nm

**Q.** For CCN(CC)c1cc2oc(=O)cc(C)c2cc1C, which absorption maximum (in CCO) is on record?
**A.** 442 nm

**Q.** For Cc1cccn2c1cc1c3ccccc3nc(-c3ccc(Cl)o3)c12, which absorption maximum (in CS(C)=O) is on record?
**A.** 405 nm

**Q.** Which absorption maximum (in C1CCOC1) does the source give for CCN(CC)c1ccc(-c2nc3c4ccccc4n(C)c3nc2-c2ccc(B(c3c(C)cc(C)cc3C)c3c(C)cc(C)cc3C)cc2)cc1 here?
**A.** 416 nm

**Q.** For COc1ccc(-c2cc3c(s2)c(-c2ccccc2)cc(=O)n3C)cc1, which absorption maximum (in CC#N) is on record?
**A.** 384 nm

**Q.** What about the absorption maximum (in ClCCl) of the same compound?
**A.** 386 nm

**Q.** With CCCCCCCCN1C(=O)c2ccc3c4c(-c5ccc(-n6c7ccccc7c7ccccc76)cc5)cc5c6c(ccc(c7c(-c8ccc(-n9c%10ccccc%10c%10ccccc%109)cc8)cc(c2c37)C1=O)c64)C(=O)N(CCCCCCCC)C5=O as the compound, how does the absorption maximum (in ClC(Cl)Cl) read?
**A.** 561 nm

**Q.** Which absorption maximum (in CS(C)=O) does the source give for C(/C=C/Nc1cccc2ccccc12)=[NH+]c1cccc2ccccc12 here?
**A.** 391 nm

**Q.** With C(#Cc1ncc(-c2ccccc2)o1)c1ccco1 as the compound, how does the absorption maximum (in ClCCl) read?
**A.** 325 nm

**Q.** Which results are given for C/C=C/C=C/C1=NC(=C\c2ccc(O)cc2)/C(=O)N1C?
**A.** absorption maximum (in ClC(Cl)Cl): 425 nm; absorption maximum (in O): 421 nm

**Q.** With CCCCC(CC)Cn1c2cc(C#N)ccc2c2ccc(C#N)cc21 (stereo not drawn) as the compound, how does the absorption maximum (in ClCCl) read?
**A.** 387 nm

**Q.** For CCCCCCCCc1ccc(-n2c3c4ccccc4nnc3c3c2c2nnc4ccccc4c2n3-c2ccc(CCCCCCCC)cc2)cc1, which absorption maximum (in Cc1ccccc1) is on record?
**A.** 316 nm

**Q.** For O=c1c2cccc3cccc(c32)c2nc3cccc4cccc(c43)n12, which absorption maximum (in ClCCl) is on record?
**A.** 475 nm

**Q.** With CCCCn1/c(=C/C=C/C2=[N+](C)c3ccccc3C2(C)C)c2cccc3cccc1c32 as the compound, how does the absorption maximum (in CS(C)=O) read?
**A.** 672 nm

**Q.** For Cc1ccc(C2=C3C=CC(=[N+](C)C)C=C3[Si](C)(C)c3cc(N(C)C)ccc32)c(C)c1, which absorption maximum (in O) is on record?
**A.** 646 nm

**Q.** With COc1ccccc1 as the compound, how does the absorption maximum (in C1CCCCC1) read?
**A.** 267.24 nm

**Q.** Which absorption maximum (in CC#N) does the source give for C[C@@]12SC(Cl)=CC1=c1nc(-c3ccccc3)[nH]c1=C1C=C(Cl)S[C@]12C here?
**A.** 322 nm

**Q.** What does the source list for CCCCCCCCCCCCCCCCOc1cc(C#Cc2ccc3ccccc3c2-c2c(C#Cc3cc(OCCCCCCCCCCCCCCCC)c(C#Cc4ccc(C=C(C#N)C#N)cc4)cc3OCCCCCCCCCCCCCCCC)ccc3ccccc23)c(OCCCCCCCCCCCCCCCC)cc1C#Cc1ccc(C=C(C#N)C#N)cc1?
**A.** absorption maximum (in Brc1ccccc1): 442 nm; absorption maximum (in C1CCCCC1): 444 nm; absorption maximum (in C1CCOC1): 425 nm; absorption maximum (in C1COCCO1): 425 nm; absorption maximum (in CCCCCC): 442 nm; absorption maximum (in CCCCCCCCO): 431 nm; absorption maximum (in CCCCOCCCC): 435 nm; absorption maximum (in CCOC(C)=O): 426 nm; absorption maximum (in CCOCC): 429 nm; absorption maximum (in Cc1ccccc1): 436 nm; absorption maximum (in ClC(Cl)(Cl)Cl): 447 nm; absorption maximum (in ClC(Cl)Cl): 446 nm; absorption maximum (in ClCCl): 436 nm

**Q.** Which absorption maximum (in ClCCl) does the source give for C(=C\c1cccc2ccccc12)/c1ncc(-c2ccccc2)o1 here?
**A.** 357 nm

**Q.** For O=C(O)c1ccc(C(=O)O)c2cc3ccccc3cc12, which absorption maximum (in C1CCOC1) is on record?
**A.** 396 nm

**Q.** What about the absorption maximum (in CN(C)C=O) of the same compound?
**A.** 390 nm

**Q.** Which absorption maximum (in Cc1ccccc1) does the source give for COc1ccc(N(c2ccccc2)c2ccc(OC)cc2)cc1 here?
**A.** 300 nm

**Q.** With CN(C)c1ccc(-c2cc(-c3ccccc3)nn2C)cc1 as the compound, how does the absorption maximum (in ClCCl) read?
**A.** 280 nm

**Q.** Which absorption maximum (in ClCCl) does the source give for c1ccc(N2c3ccccc3C3(c4ccccc4-c4ccccc43)c3ccccc32)cc1 here?
**A.** 310 nm

**Q.** For C[Si](C)(C)c1ccc([Si](C)(C)C)c2ccccc12, which absorption maximum (in C1CCCCC1) is on record?
**A.** 300 nm

**Q.** Which absorption maximum (in ClCCl) does the source give for CCCCN(CCCC)c1ccc2c#cc3cc4c#cc5ccc(C(F)(F)F)cc5c#cc#cc5cc(C(F)(F)F)ccc5c#cc4cc3c#cc3ccc(N(CCCC)CCCC)cc3c#cc#cc2c1 here?
**A.** 450 nm

**Q.** With c1ccc(-n2c(-c3ccc([Si](c4ccc(-c5nc6ccccc6n5-c5ccccc5)cc4)(c4ccc(-c5nc6ccccc6n5-c5ccccc5)cc4)c4ccc(-c5nc6ccccc6n5-c5ccccc5)cc4)cc3)nc3ccccc32)cc1 as the compound, how does the absorption maximum (in ClCCl) read?
**A.** 306 nm

**Q.** For c1ccc(-c2ccc(-c3nc(-n4c5ccccc5c5ccc6c7ccccc7n(-c7ccccc7)c6c54)nc(-n4c5ccccc5c5ccc6c7ccccc7n(-c7ccccc7)c6c54)n3)cc2)cc1, which absorption maximum (in Cc1ccccc1) is on record?
**A.** 403 nm

**Q.** Which results are given for CC[n+]1c(C=C2C(=O)C(C=C3Sc4cc(Cl)ccc4N3C)=C2[O-])[se]c2ccccc21?
**A.** absorption maximum (in CO): 658 nm; absorption maximum (in ClC(Cl)Cl): 677 nm; absorption maximum (in ClCCl): 678 nm

**Q.** Which absorption maximum (in Cc1ccccc1) does the source give for COc1ccc(C2=C3C(C)=CC(C=Cc4ccc(C(=O)OC5C[C@H]6CCC5(C)C6(C)C)cc4)=[N+]3[B-](F)(F)n3c(/C=C/c4ccc(C(=O)OC5CC6CCC5(C)C6(C)C)cc4)cc(C)c32)cc1 (stereo partly drawn) here?
**A.** 640 nm

**Q.** Which absorption maximum (in C1CCOC1) does the source give for C1=Cc2ccccc2C(=Cc2ccc(-c3ccc(C=C4c5ccccc5-c5ccccc54)cc3)cc2)c2ccccc21 here?
**A.** 357 nm

**Q.** Which absorption maximum (in CC#N) does the source give for Oc1ccc2ccccc2c1/C=N/CC/N=C/c1c(O)ccc2ccccc12 here?
**A.** 408 nm

**Q.** With Cc1ccc(-c2ccc(/C=C/c3ccc(Cl)cc3)cn2)nc1 as the compound, how does the absorption maximum (in CC#N) read?
**A.** 337 nm

**Q.** Which absorption maximum (in CCO) does the source give for CC/[NH+]=c1\cc2oc3cc(NCCC(=O)NC(CCC(=O)OC)C(=O)OC)c4ccccc4c3nc-2cc1C (stereo not drawn) here?
**A.** 600 nm

**Q.** And the absorption maximum (in O)?
**A.** 600 nm

**Q.** For C(#Cc1ccccc1)C(C#Cc1ccccc1)=Cc1ccc(C=C(C#Cc2ccccc2)C#Cc2ccccc2)cc1, which absorption maximum (in ClC(Cl)Cl) is on record?
**A.** 416 nm

**Q.** For C1=Cc2ccc3ccccc3c2N(c2ccccc2)B1c1ccccc1, which absorption maximum (in C1CCCCC1) is on record?
**A.** 364 nm

**Q.** With CCOC(=O)CCCCCn1c2ccccc2c(=O)c2cc(N)ccc21 as the compound, how does the absorption maximum (in O) read?
**A.** 405 nm

**Q.** With C(S/C=C/c1ccc(/C=C/SC=C2CCCC2)cc1)=C1CCCC1 as the compound, how does the absorption maximum (in ClCCl) read?
**A.** 350 nm

**Q.** With O=P1(c2ccccc2)c2cccc3c4ccccc4c4ccc1n4c23 (stereo not drawn) as the compound, how does the absorption maximum (in ClCCl) read?
**A.** 378 nm

**Q.** For CCC1(CC)c2cc(C=C(C#N)C#N)ccc2-c2ccc(N(C)C)cc21, which absorption maximum (in C1CCCCC1) is on record?
**A.** 480 nm

**Q.** What about the absorption maximum (in CC#N) of the same compound?
**A.** 474 nm

**Q.** And the absorption maximum (in CCO)?
**A.** 478 nm

**Q.** What about the absorption maximum (in CCOCC) of the same compound?
**A.** 470 nm

**Q.** What about the absorption maximum (in CS(C)=O) of the same compound?
**A.** 490 nm

**Q.** What about the absorption maximum (in ClCCl) of the same compound?
**A.** 490 nm

**Q.** And the absorption maximum (in c1ccccc1)?
**A.** 480 nm

**Q.** Which absorption maximum (in ClCCl) does the source give for CCCCCCN1C(=O)c2cccc3c(-c4ccc(-c5cc(-c6ccc(C)cc6)nn5-c5ccccc5)s4)ccc(c23)C1=O here?
**A.** 389 nm

**Q.** With c1ccc(-c2nc3sc4ccccc4c3s2)cc1 as the compound, how does the absorption maximum (in CS(C)=O) read?
**A.** 348 nm

**Q.** With Cc1cc(=O)c2c(ccc3ccc(O)cc32)o1 as the compound, how does the absorption maximum (in CC#N) read?
**A.** 336 nm

**Q.** What does the source list for COC1=[N+]2C(=C(c3ccccc3)c3ccc(OC)n3[B-]2(F)F)C=C1SC#N?
**A.** absorption maximum (in CC#N): 504 nm; absorption maximum (in CCCCCC): 514 nm; absorption maximum (in CCOC(C)=O): 506 nm; absorption maximum (in CO): 497 nm; absorption maximum (in ClCCl): 515 nm

**Q.** With Cc1cccc2cc3c(=O)n(C)c(=O)n(C)c3nc12 as the compound, how does the absorption maximum (in CC#N) read?
**A.** 359 nm

**Q.** And the absorption maximum (in CC(C)O)?
**A.** 360 nm

**Q.** And the absorption maximum (in CCO)?
**A.** 359 nm

**Q.** What about the absorption maximum (in CO) of the same compound?
**A.** 361 nm

**Q.** What about the absorption maximum (in ClC(Cl)Cl) of the same compound?
**A.** 362 nm

**Q.** And the absorption maximum (in ClCCl)?
**A.** 362 nm

**Q.** For COc1ccc(N(c2ccc(C=C(c3ccccc3)c3ccccc3)cc2)c2ccc(OC)cc2)cc1, which absorption maximum (in Cc1ccccc1) is on record?
**A.** 376 nm

**Q.** With c1cc2cc(c1)c1cccc(c1)c1ccc3ccc4ccc(cc4c3c1)c1cccc(c1)c1cccc2c1 as the compound, how does the absorption maximum (in Cc1ccccc1) read?
**A.** 343 nm

**Q.** Which results are given for CC(C)(C)c1ccc2c(c1)c1cc(C(C)(C)C)ccc1n2-c1ccc(C#Cc2cccc(C#Cc3ccc(-n4c5ccc(C(C)(C)C)cc5c5cc(C(C)(C)C)ccc54)cc3)c2)cc1?
**A.** absorption maximum (in CC#N): 340 nm; absorption maximum (in CCCCC): 340 nm; absorption maximum (in CO): 338 nm; absorption maximum (in Cc1ccccc1): 345 nm; absorption maximum (in ClC(Cl)Cl): 344 nm; absorption maximum (in ClCCl): 345 nm

**Q.** With CC(=O)[O-] as the compound, how does the absorption maximum (in O) read?
**A.** 210 nm

**Q.** With Cc1ccc(O)c(-c2[nH]c(=O)n3c2-c2ccccc2C3=O)c1 as the compound, how does the absorption maximum (in CC#N) read?
**A.** 394 nm

**Q.** What about the absorption maximum (in CO) of the same compound?
**A.** 399 nm

**Q.** And the absorption maximum (in ClCCl)?
**A.** 393 nm

**Q.** For C1=C2C3=C(C4=[N+]2[B-]2(Oc5ccccc54)Oc4ccccc4-c4c5c(c1n42)C1CCC5CC1)C1CCC3CC1 (stereo not drawn), which absorption maximum (in ClCCl) is on record?
**A.** 626 nm

**Q.** For Cc1ccc(N2C(c3ccccc3[NH-])=[NH+]C(c3ccccc3)C2c2ccccc2)cc1 (stereo not drawn), which absorption maximum (in Cc1ccccc1) is on record?
**A.** 328 nm

Reference: the Deep4Chem optical property database
